Tests used:
[1] = system: T-ALL cell lines Jurkat, HBP-ALL, Loucy, and KOPTK1; assay: Proliferation of T-ALL cell lines; assay type: cell-based, human
[2] = system: 11 leukemia cell lines; assay: Viability of a panel of 11 leukemia cell lines; assay type: cell-based; details: 48 hours of treatment
Excerpt: Compounds Al-4-88, Al-4-57, Al-10-47, Al-10-104, and Al-14-91 were screened against a panel of 11 leukemia cell lines with varying genotypes.
The viability is represented as the percent DAPI negative cells relative to DMSO control. Each symbol/color in the graphs of FIG. 4 represent an individual cell line. The symbol represents the mean of independent replicates and the error bars represent the SEM. The table indicates the morphology, type of leukemia, and known mutations for each of the 11 cell lines.

[3] = system: inducible Runx1 (iRx) ES cells; assay: Inducible Runx1 (iRx) ES cell differentiation system, FACS; assay type: cell-based
Experimental: FIG. 3A is a schematic diagram representing the inducible Runx1 (iRx) ES cell differentiation system. ES cells were allowed to form embryoid bodies (EB) in IVD culture media and hemangioblast Flk1 positive cells were sorted and seeded into blast culture media. After 2 days, a second Flk1 sort was performed and Flk1 positive cells were cultured in hemogenic endothelium culture conditions. In the absence of doxycycline (−dox), Runx1 is absent and cells cannot progress from the HE1 stage of development. In the presence of doxycycline (+dox), Runx1 is expressed and differentiation progresses, resulting in the formation of CD41+ve/c-kit+ve floating progenitors.
FIG. 3C provides representative FACS histograms showing staining of the surface markers CD41 and c-kit in cells treated with the compounds and in the presence or absence of doxycycline, as indicated.
FIG. 3D provides representative FACS histograms showing staining of Annexin V and Propidium Iodide (PI) in cells treated with compounds Al-10-104 and Al-4-88 in the absence or presence of doxycycline, as indicated.

[4] = system: H520 lung cancer cells; assay: MTT growth assay, H520 cells; assay type: cell-based; details: H520, 10 μM, 72 hrs
Experimental: Activity of Al-10-104 was tested using several lung cancer cell lines and one immortalized, non-transformed lung cell line. […] Data for the squamous cell carcinoma of the lung cell line H520 and the immortalized normal lung epithelial cell line BEAS-2B are shown in FIG. 10.
H520 cells were cultured in RPMI 1640 medium, supplemented with fetal bovine serum (10% final concentration), Hepes (1%), and sodium priruvate (1%). The MTT assay used 4×10^5/ml cells. BEAS-2B cells were cultured in DMEM medium with fetal bovine serum (10% final concentration). The MTT assay for the BEAS-2B cell line was performed using 3.5×10^5/ml cells.
Al-4-88 had no effect on either cell line.

## COc1cccnc1-c1nc2cc(OC(F)(F)F)ccc2[nH]1 [Al-10-104]
[1]
  proliferation: inhibited proliferation
[2]
  percent viability (DAPI negative cells relative to DMSO): significant inhibition of the majority of the cell lines
[3]; 10 μM, in the presence of doxycycline
  percentage of cells expressing c-kit and CD41: reduced
[3]; adherent cells, absence or presence of doxycycline
  apoptosis (Annexin V and PI staining): apoptosis is not increased
[4]
  cell growth (MTT assay): inhibited almost as effectively as 1 μM staurosporine
